Data set [1] has as its system carrageenan-induced rat paw edema. In words: carrageenan-induced rat paw edema. Conditions: i.p. 0.15 mmol/kg, 3.5 h post carrageenan, female rats, vs controls given carrageenan only; for inhibition in vivo at 150 µmol/kg: Rattus norvegicus, ip, 3.5 h. It counts as in vivo. How it is done:
Carrageenan-induced inflammation model has significant value for evaluating anti-inflammatory agents. Carrageenan administration causes an acute and local inflammatory response. In the early phase (0–1 h), bradykinin, histamine, tachykinins, complement and reactive oxygen and nitrogen species are involved, whereas prostaglandins and various cytokines such as IL-1β, TNF-α are released in the second phase, more than one hour after administration.
Total of 0.1 mL of an aqueous solution of carrageenan (1% w/v) was injected i.d. into the right hind paw of rats, with the left paw serving as control. The tested compounds (suspended in water with a few drops of Tween 80) were given i.p. (0.15 mmol/kg) 5 min before the carrageenan administration. After 3.5 h, the hind paws were excised and weighed separately. The produced edema was estimated as paw weight increase.
(In the carrageenan paw model, swelling and tenderness develop within hours.)

Another data set concerns the target T1, soybean LOX (Glycine max, UniProt P08170).
T1 construct: purchased Sigma (St. Louis, MO, USA)
T1 sequence (P08170 1-839): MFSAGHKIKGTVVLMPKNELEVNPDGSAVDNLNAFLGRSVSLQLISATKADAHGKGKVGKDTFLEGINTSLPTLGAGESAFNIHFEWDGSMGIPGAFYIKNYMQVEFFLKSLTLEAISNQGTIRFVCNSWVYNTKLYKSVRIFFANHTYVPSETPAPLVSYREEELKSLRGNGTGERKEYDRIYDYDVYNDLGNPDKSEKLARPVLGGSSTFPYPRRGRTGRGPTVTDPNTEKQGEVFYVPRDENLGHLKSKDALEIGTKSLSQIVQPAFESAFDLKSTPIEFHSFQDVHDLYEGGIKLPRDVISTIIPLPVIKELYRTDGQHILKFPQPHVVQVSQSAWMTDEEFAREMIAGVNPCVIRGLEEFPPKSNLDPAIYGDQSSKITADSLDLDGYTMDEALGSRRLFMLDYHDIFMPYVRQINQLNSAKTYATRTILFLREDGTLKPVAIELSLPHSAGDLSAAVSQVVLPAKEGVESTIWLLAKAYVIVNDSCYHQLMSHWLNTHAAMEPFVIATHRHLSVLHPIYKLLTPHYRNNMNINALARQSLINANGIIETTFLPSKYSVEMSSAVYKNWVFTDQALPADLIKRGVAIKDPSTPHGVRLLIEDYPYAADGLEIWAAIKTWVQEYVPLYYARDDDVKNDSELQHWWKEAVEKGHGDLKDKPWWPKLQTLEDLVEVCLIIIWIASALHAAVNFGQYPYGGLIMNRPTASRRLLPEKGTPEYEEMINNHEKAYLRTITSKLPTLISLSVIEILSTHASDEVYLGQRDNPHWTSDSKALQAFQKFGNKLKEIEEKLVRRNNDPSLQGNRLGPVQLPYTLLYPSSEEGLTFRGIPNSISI
Put plainly: inhibition of soybean lipoxygenase. It counts as biochemical. Conditions: for IC50: after 7 min of incubation, sodium linoleate 100 μM, pH 9.0, 28 °C; for % inhibition of lipoxygenase: highest soluble concentration. How it is done:
Soybean LOX, because of structural and functional similarities with mammalian LOXs, is commonly used for the study of anti-inflammatory agents.
The reaction mixture contained (final concentration) the test compounds, dissolved in ethanol (10–300 μM), or the solvent (control), soybean LOX, dissolved in 0.9% NaCl solution (250 u/mL) and sodium linoleate (100 μM), in Tris–HCl buffer, pH 9.0. […] For the estimation of the type of inhibition, the above experiments were repeated, using 1 mM sodium linoleate, which is higher than the saturating substrate concentration.

The next data set relates to T2, ovine COX-1.
T2 construct: purchased Cayman Chemical Co., Ann Arbor, MI, USA
In words: COX Inhibitor Screening Assay kit, COX-1. It counts as biochemical. Conditions: compound 0.05 μM, arachidonic acid 0.1 μM. The source says: […]. κ-Carrageenan and lipoxygenase type I-B from soybean were purchased from Sigma (St. Louis, MO, USA). COX inhibition was estimated using the “COX Inhibitor Screening Assay” kit (Cayman Chemical Co., Ann Arbor, MI, USA). For the in vivo experiments, female Wistar rats (160–180 g, 4–5 months old) were kept in the Centre of the School of Veterinary Medicine (EL54 BIO42), Aristotelian University of Thessaloniki, which is registered by the official state veterinary authorities (presidential degree 56/2013, in harmonization with the European Directive 2010/63/EEC). The Animal Ethics Committee of the Prefecture of Central Macedonia (no. 270079/2500) approved the experimental protocols.
(§1) The effect of compounds on COX-1 and COX-2 activity was measured using a commercial kit and applying the instructions of the manufacturer. The kit uses ovine COX-1 and human recombinant COX-2 enzymes. The assay measures PGF2a produced by SnCl2 reduction of COX-derived PGH2. The prostanoid product was quantified via enzyme immunoassay using a broadly specific antibody that binds to all the major prostaglandin compounds.

The nature of data set [2]: preliminary stability in acetone-water (TLC). Type of data set: physicochemical. Particulars: 4:1 acetone-water, 1 mM, 37 °C, up to 72 h. The protocol: (§2) In a preliminary stability control experiment, compound 16, with the highest anti-inflammatory activity, was dissolved in an acetone-water mixture and incubated for 72 h at 37 °C. Samples were tested by thin layer chromatography (TLC) at the time of the preparation and after 2.5, 5, 24, 48, and 72 h. The same experiment was repeated, but plasma from a healthy rat was added, and tested by TLC at the time of preparation and after 24 h of incubation at 37 °C.
(§3) A solution of 16 in a 4:1 acetone–water mixture (1 mM) was prepared and 5 μL of this were applied on a TLC silica gel aluminum sheet and developed with petroleum ether-ethyl acetate (1:1), at the time of preparation and after 2.5, 5, 24, 48, and 72 h of incubation (37 °C). The same experiment was repeated, adding 1 mL of rat plasma. TLC was performed at the time of preparation and after 24 h.

Data set [3] in a line: preliminary stability with rat plasma (TLC). Type of data set: in vitro ADME. Conditions: acetone-water with rat plasma added, 37 °C, 24 h. How it is done: as §2, §3
The test system of data set [4] is rat hepatic microsomal membranes. Put plainly: Fe(II)-ascorbate induced lipid peroxidation of rat hepatic microsomal membranes. Particulars: 1 mM, after 45 min of incubation. The protocol: Enzymatically inactivated rat hepatic microsomal membranes, rich in polyunsaturated fatty acids, were used and peroxidation was induced by Fe(II)-ascorbate. Compounds 21 and 22, expected to exert antioxidant activity due to the tyrosine phenolic group, were tested.
The peroxidation of heat-inactivated (90°, 90 s) rat liver microsomal fraction was induced by ascorbic acid (0.2 mM) and ferrous sulphate (10 μΜ). The studied compounds, in dimethylsulfoxide, were added at 1 mM. Aliquots were taken from the incubation mixture (37 °C) for 45 min. Lipid peroxidation was assessed spectrophotometrically (535/600 nm) as 2-thiobarbituric acid reactive material.

In another data set the test system is T3, human recombinant COX-2.
T3 construct: purchased Cayman Chemical Co., Ann Arbor, MI, USA
Put plainly: COX Inhibitor Screening Assay kit, COX-2. Conditions: compound 0.05 μM, arachidonic acid 0.1 μM. It counts as biochemical. How it is done:
COX inhibition was estimated using the “COX Inhibitor Screening Assay” kit (Cayman Chemical Co., Ann Arbor, MI, USA).
as §1

Marks after values point to notes of the source that are not given here.

For orientation: inhibition in vivo means the share of the control response that was lost under treatment. Consider `COC(=O)CCNC(=O)C(C)c1ccc(CC(C)C)cc1` (stereo not shown) [Compound 5a], for which the inhibition in vivo at 150 µmol/kg in data set [1] turned out to be 14%.
In the case of `COC(=O)C1CCCN1C(=O)C(C)c1ccc(CC(C)C)cc1` (stereo not shown) [Compound 8a], the inhibition in vivo at 150 µmol/kg in data set [1] was 20%.
For the compound `COC(=O)C(C)NC(=O)Cc1c[nH]c2ccccc12` (stereo not shown) [Compound 13a], in data set [1], the inhibition in vivo at 150 µmol/kg was 18%.
With `COC(=O)C1CCCN1C(=O)Cc1c[nH]c2ccccc12` (stereo not shown) [Compound 14a, 1-(2-(1H-indol-3-yl)acetyl)pyrrolidine-2-carboxylic acid (14) methyl ester], the inhibition in vivo at 150 µmol/kg in data set [1] is 0%.
Broadly, the IC50 is the concentration that inhibits the measured activity by half. A high value points to weaker potency. The melting point is the temperature of the solid-liquid transition. As for `COc1cc(COC(=O)CCNC(=O)C(C)c2ccc(CC(C)C)cc2)cc(OC)c1OC` (stereo not shown) [Compound 15, 3,4,5-Trimethoxybenzyl 3-(2-(4-isobutylphenyl)propanamido)propanoate], the melting point lay within 73 to 75 °C. The compound further registered an inhibition in vivo at 150 µmol/kg in data set [1] of 35%. For the same compound, at soybean LOX, the IC50 worked out at 160 µM.
For `COc1cc(COC(=O)CCNC(=O)C(C)c2cccc(C(=O)c3ccccc3)c2)cc(OC)c1OC` (stereo not shown) [Compound 16, 3,4,5-Trimethoxybenzyl 3-(2-(3-benzoylphenyl)propanamido)propanoate], the “COX-1 % Inhibition” value in the data set on ovine COX-1 turned out to be 28%. Besides, the “stability (hydrolysis, TLC)” value in data set [2] and in data set [3] was “not hydrolyzed” in each case. The compound further registered an inhibition in vivo at 150 µmol/kg in data set [1] of 91%. Besides, the “% Edema Inhibition” value in data set [1] is recorded as 91 *** %. The “% inhibition of lipoxygenase” value at soybean LOX (at 150 μΜ) is recorded as 20%.
For `COc1ccc2cc([C@H](C)C(=O)NCCC(=O)OCc3cc(OC)c(OC)c(OC)c3)ccc2c1` [Compound 17, (S)-3,4,5-trimethoxybenzyl 3-(2-(6-methoxynaphthalen-2-yl)propanamido)propanoate], the inhibition in vivo at 150 µmol/kg in data set [1] was determined as 23%. At soybean LOX, this compound gave an IC50 of 41 µM.
Regarding `COc1cc(COC(=O)C2CCCN2C(=O)C(C)c2ccc(CC(C)C)cc2)cc(OC)c1OC` (stereo not shown) [Compound 18], the melting point fell in the range of 85 to 87 °C. For the same compound, the inhibition in vivo at 150 µmol/kg in data set [1] stood at 49%. This compound displayed an IC50 against soybean LOX of 83 µM.
On to `COc1cc(COC(=O)C2CCCN2C(=O)C(C)c2cccc(C(=O)c3ccccc3)c2)cc(OC)c1OC` (stereo not shown) [Compound 19, 3,4,5-Trimethoxybenzyl 1-(2-(3-benzoylphenyl)propanoyl)pyrrolidine-2 carboxylate], for which the inhibition in vivo at 150 µmol/kg in data set [1] was determined as 51%. The same compound returned an IC50 against soybean LOX of 140 µM.
`COc1ccc2cc(C(C)C(=O)N3CCCC3C(=O)OCc3cc(OC)c(OC)c(OC)c3)ccc2c1` (stereo not shown) [Compound 20, 3,4,5-Trimethoxybenzyl1-(2-(6-methoxynaphthalen-2-yl)propanoyl) pyrrolidine-2-carboxylate]: the melting point fell in the range of 50 to 53 °C. Moreover, in data set [1], the inhibition in vivo at 150 µmol/kg came out at 37%. In addition, the “% inhibition of lipoxygenase” value at soybean LOX (at 100 μΜ) was determined as 40%.
As to `COc1cc(COC(=O)C(Cc2ccc(O)cc2)NC(=O)C(C)c2ccc(CC(C)C)cc2)cc(OC)c1OC` (stereo not shown) [Compound 21, 3,4,5-Trimethoxybenzyl3-(4-hydroxyphenyl)-2-(2(4-isobutylphenyl)propanamido) propanoate], the melting point was 86 to 88 °C. In addition, the “COX-1 % Inhibition” value in the data set with ovine COX-1 was 51%. The “effect against lipid peroxidation” value in data set [4] was “poor”. Besides, the inhibition in vivo at 150 µmol/kg in data set [1] was 67%. On soybean LOX, this compound yielded an IC50 of 64 µM.
Consider `COc1cc(COC(=O)C(Cc2ccc(O)cc2)NC(=O)C(C)c2cccc(C(=O)c3ccccc3)c2)cc(OC)c1OC` (stereo not shown) [Compound 22, 3,4,5-Trimethoxybenzyl 2-(2-(3-benzoylphenyl)propanamido)-3-(4-hydroxyphenyl) propanoate], for which the melting point is 68 to 70 °C. For the same compound, in data set [4], the “effect against lipid peroxidation” value is “poor”. The inhibition in vivo at 150 µmol/kg in data set [1] amounted to 59%. Besides, the IC50 on soybean LOX is 85 µM.
In the case of `COc1cc(COC(=O)C(C)NC(=O)Cc2c[nH]c3ccccc23)cc(OC)c1OC` (stereo not shown) [Compound 23, 3,4,5-Trimethoxybenzyl 2-(2-(1H-indol-3-yl)acetamido)propanoate], the inhibition in vivo at 150 µmol/kg in data set [1] worked out at 40.5%. Besides, the “% inhibition of lipoxygenase” value on soybean LOX (at 150 μΜ) amounted to 15%.
In turn, `COc1cc(COC(=O)C2CCCN2C(=O)Cc2c[nH]c3ccccc23)cc(OC)c1OC` (stereo not shown) [Compound 24, 3,4,5-Trimethoxybenzyl1-(2-(1H-indol-3-yl)acetyl)pyrrolidine-2carboxylate] displayed a melting point of 58 to 60 °C. In data set [1], this compound registered an inhibition in vivo at 150 µmol/kg of 0%. The same compound displayed an IC50 against soybean LOX of 128 µM.
With `CC(C)Cc1ccc(C(C)C(=O)O)cc1` (stereo not shown) [Ibuprofen, reference compound], the “COX-1 % Inhibition” value in the data set with ovine COX-1 is on record as 68%. Besides, in data set [1], the inhibition in vivo at 150 µmol/kg was 36% and the “% Edema Inhibition” value is on record as 36 ** %.
Regarding `O=C(O)Cc1c[nH]c2ccccc12` [Indole-3-acetic acid, reference compound], in data set [1], the inhibition in vivo at 150 µmol/kg came to 0% and the “% Edema Inhibition” value was “inactive”.
On to `CC(C(=O)O)c1cccc(C(=O)c2ccccc2)c1` (stereo not shown) [Ketoprofen], for which the “COX-1 % Inhibition” value in the data set on ovine COX-1 came to 94%. Further, in the data set on human recombinant COX-2, the “COX-2 % Inhibition” value was determined as 49%.
On to `COc1ccc2cc([C@H](C)C(=O)O)ccc2c1` [Naproxen], for which the “COX-1 % Inhibition” value in the data set with ovine COX-1 is given as 34%; in the data set on ovine COX-1 (listed as naproxen), “mild activity”. Besides, the inhibition in vivo at 150 µmol/kg in data set [1] was found to be 11%. Further, the figures for the “COX-2 % Inhibition” value with human recombinant COX-2 and with human recombinant COX-2 (listed as naproxen) were 17% and “weak inhibitor”, respectively.

The values are drawn from article PMC9000480, “Enhancement of the Anti-Inflammatory Activity of NSAIDs by Their Conjugation with 3,4,5-Trimethoxybenzyl Alcohol” (Molecules, 2022).
